{
  "source": "patent US20250295668A1",
  "about": "“METHODS FOR INDUCING COLANIC ACID BIOSYNTHESIS” (priority 2024, published 2025)",
  "test_system": "MG1655 E. coli",
  "assay": "Colanic acid production in MG1655 commensal E. coli",
  "assay_type": "cell-based",
  "conditions": "MG1655, low-dose cephaloridine, 37° C.",
  "protocol": "The desired bacterial strain was first inoculated and cultured in M9 minimum medium overnight at 37° C. to obtain the seeding culture. The OD 600 was measured, and the seeding bacteria were diluted to OD600=0.02 in M9 minimum medium for another 16 hours. After the incubation, bacterial cultures were collected in 50 mL tubes, spun down at 4,000 g at 4° C. for 30 min, filtered, and 25 mL of supernatant was collected per 50 ml conical tube. Ice-cold 100% ethanol (EtOH) was added to make a final 50% EtOH solution for precipitation, and the mixture was kept at 4° C. overnight. Once precipitation occurred, the liquid was carefully removed after centrifugation at 4,000 g at 4° C. for 50 min. The pellet was washed once with cold 80% EtOH and then air-dried in a hood. The pellet from every 50 mL culture was resuspended in 500 μL distilled H2O. The solution was sonicated for 60 minutes at 37° C., followed by centrifugation at 4000 g at 4° C. for 10 minutes. […] The fucose quantification assay was then carried out using a K-FUCOSE kit (Megazyme) according to the manufacturer's protocol.\nMG1655, a human-derived commensal K12 strain, was treated with a low dose of cephaloridine at 37° C., which induced colanic acid production (FIG. 3A). […] The luminal content of mice ileum was harvested after 3 hours of cephaloridine administration and were imaged for fluorescence. […]",
  "data": [
    {"smiles": "O=C(Cc1cccs1)N[C@@H]1C(=O)N2C(C(=O)[O-])=C(C[n+]3ccccc3)CS[C@H]12", "note": "[cephaloridine]", "values": [
      {"measurement": "colanic acid production increase", "value": 3.2, "unit": "fold"}
    ]}
  ]
}
